# Measured values from patent US20100160440A1, “INTRANASAL PHARMACEUTICAL COMPOSITIONS COMPRISING SUCCINIC ACID AND METHODS THEREOF” (priority 2007, published 2010).
# Read-outs that look alike come from different tables or passages of the source.
# Tested on: male Wistar rats injected with beta-amyloid peptide 25-35 into NBM
# Details: for Improvement in learning and memory as compared to control rats: 1 mg/kg for 7 days; for Latency (retention latency to enter dark compartment, mean±SD): 1 mg/kg succinic acid water solution once a day for 7 days from day 16 after beta-amyloid, retention trial 24 h after acquisition, cut-off 180 s, n=8
# Protocol: Beta-amyloid was administered bilaterally into NBM of male Wistar rats in dose of 2 μg per each side. On day 16th after the amyloid injection, rats received intranasally or intraperitoneally compositions comprising a water solution of 1 mg/kg of succinic acid for 7 days singly a day. Control rats received saline intranasally. On day next to the last day of the treatment, passive avoidance performance in rats was tested for two consecutive days. A two-compartment, step-through, passive avoidance apparatus consisting of illuminated (25×40×25 cm) and dark (25×40×25 cm) compartments attached to an electrified grid floor and separated by a guillotine door (8×8 cm) was used. In the acquisition trial, the rat was placed in the illuminated compartment in a position its tail directed to the closed door for 2 min to habituate to the apparatus. The guillotine door was opened and time to enter to dark compartment was recorded. When the rat entered to dark compartment completely (four foots in dark compartment), the guillotine door was closed and the rat was delivered an electrical shock of 0.8 mA for 3 sec through the grid floor. After the shock, the rat was immediately placed in home cage. In the retention trial, conducted 24 h after the acquisition trial, the rat was placed in the illuminated compartment and the retention latency to enter into the dark compartment was recorded until 180 s had elapsed. […] Data are presented as retention latency mean±SD (n=8).
structure (smiles),measurement,setting,value
O=C(O)CCC(=O)O [Succinic acid],Improvement in learning and memory as compared to control rats,intranasally treated rats,significant improvement in learning and memory
same,"Latency (retention latency to enter dark compartment, mean±SD)",intranasally,87 ± 21 s
same,Improvement in learning and memory as compared to control rats,intraperitoneally treated rats,do not
same,"Latency (retention latency to enter dark compartment, mean±SD)",intraperitoneally,43 ± 19 s
